From patent US8778961B2, “O-methylated rapamycin derivatives for alleviation and inhibition of lymphoproliferative disorders” (The Trustees of the University of Pennsylvania, priority 2000, dated 2014)
Several values for one entry are separate records, joined by “and”; a condition that tells them apart may be missing. Identical values can stand only once.

Key:
20A tumors [1] = experiment: treatment of established xenotransplanted tumors in SCID mice; type: in vivo
Protocol: (§1) Establishment and passaging of the xenotransplanted tumors was performed as described (Douglas et al., 1998, Cytometry 32:57-65; Kawamata et al., 1998, Blood 91:561-569; Pepper et al., 1998, Leuk. Res. 22:439-444). To deplete macrophages and NK cells and to enhance tumor engraftment, SCID mice were injected intraperitoneally with 30-45 milligrams per kilogram of etoposide (Bedford Laboratories, Bedford, Ohio) 4 days prior to implantation of the human EBV^+ B-cell lines (Visonneau et al., 1998, Am. J. Path. 152:1299-1311). Ten million cells of each line employed (see results) were inoculated into mice either intraperitoneally or subcutaneously in 200 microliters of Dulbecco's Phosphate Buffered Saline (DPBS; BioWhittaker, Walkersville, Md.). Ascites or palpable subcutaneous tumors developed 3-5 weeks after cell injection.
(§2) Tumor treatment and growth inhibition experiments were performed using fragments of the established subcutaneous tumors (Pasqualucci et al., 1995, Blood 85:2139-2146, Visonneau et al., 1998, Am. J. Path. 152:1299-1311). For this purpose, mice were anesthetized with KETALAR™ (ketamine, Parke-Davis, Morris Plains, N.J.) by intraperitoneal injection of 100 milligrams per kilogram. Next, the primary tumor was aseptically removed and freed from necrotic, fatty and connective tissue and divided into small pieces of roughly equal size and 3-4 pieces per mouse were injected subcutaneously. Treatment of established tumors with SDZ RAD was started when tumors reached 5 millimeters diameter. In growth inhibition experiments, the treatment was initiated 3 days prior to the tumor implantation. Tumor volume in all experiments was determined from the equation: volume=0.4ab^2, where a and b designate respectively long and short diameter of the tumor. The transplanted mice were monitored for tumor growth for a period of up to 2 months. Five milligrams per kilogram of SDZ RAD was administered once a day by gavage as described (Schuurman et al., 1997, Transplantation 64:32-5; Schuler et al. 1997, Transplantation 64:36-42).
(§3) Mice were sacrificed by exposure to FORANE™ (isoflurane, Ohmeda, Liberty Place, N.J.) on day 29 in the drug toxicity study, on day 40-55 in the tumor growth inhibition study or when tumors achieved approximately 2 centimeter diameter, or when ulceration of the skin, signs of severe respiratory distress, weakness, or lethargy appeared. Complete autopsy was performed on all mice at the end of the study regardless of their appearance. Tumor and internal organs (spleen, liver, lung, heart, kidney, small and large intestines, femoral bone for bone marrow) were fixed in 10% (v/v) formalin, embedded in paraffin, cut into […] sections, transferred to glass slides, and stained with hematoxylin and eosin. Representative tumor fragments were stained immunohistochemically by standard streptavidin-biotin complex technique using commercially available reagents (Research Genetics, Huntsville, Ala.), antibodies: anti-CD20 (L-26) and LMP-1 (both from DAKO, Carpinteria, Calif.) and Ki67 (mib1; Immunotech, Westbrook, Me.). EBV-encoded RNA (EBER-1), and detected using commercially available reagents.
(§4) In order to determine the in vivo effect of SDZ RAD on PTLD-like cells, 15A, 20A, and A1 cell line tumors were implanted into 7-15 SCID mice per cell line. Treatment was initiated once the tumors reached 5 millimeters diameter, which corresponds to a volume of 50 cubic millimeters. SDZ RAD was administered by daily gavage at 5 milligrams per kilogram, which represents a non-toxic and effective immunosuppressive dose (Schuurman et al., 1997, Transplantation 64:32-5; Schuler et al. 1997, Transplantation 64:36-42).

A1 cell line tumors = experiment: as above; type: in vivo
Protocol: as §1, §2, §3, §4

15A tumors = experiment: inhibition of tumor establishment in SCID mice; type: in vivo
Protocol: as §1, §2, §3
(§5) Because SDZ RAD, when used as an immunosuppressive agent, is administered chronically to transplant patients, its main therapeutic impact on PTLDs may be to inhibit their development rather than to alleviate the clinically symptomatic cases. To test if SDZ RAD can inhibit establishment of PTLD-like lymphomas, daily treatment with 5 milligrams per kilogram body weight of the drug was initiated 3 days prior to the tumor implantation. […] On day 25, the treated tumors measured in average 38 cubic millimeters, the untreated approximately 1940 cubic millimeters. On day 45, the median volume of the treated tumor was 480 cubic millimeters. In 20A tumors, 6 out of 11 tumors were not detectable on day 25; the median volume of the remaining 5 was 20 cubic millimeters. The average untreated tumor measured 210 cubic millimeters on that day. […]

20A tumors [2] = experiment: inhibition of tumor establishment in SCID mice; type: in vivo
Protocol: as §1, §2, §3, §5

A1 tumors = experiment: inhibition of tumor establishment in SCID mice; type: in vivo
Protocol: as §1, §2, §3, §5

[3] = system: HTLV-I (+) T-cell lines ATL-2, C10MJ2, HUT102B; conditions: Zhang et al., 1999, Leukemia Res. 23:373-384; cited from earlier work
[4] = day 25, treatment from 3 days prior to implantation

CO[C@H]1C[C@@H]2CC[C@@H](C)[C@@](O)(O2)C(=O)C(=O)N2CCCC[C@H]2C(=O)O[C@H]([C@H](C)C[C@@H]2CC[C@@H](OCCO)[C@H](OC)C2)CC(=O)[C@H](C)/C=C(\C)[C@@H](O)[C@@H](OC)C(=O)[C@H](C)C[C@H](C)/C=C/C=C/C=C/1C [SDZ RAD, 40-O-(2-hydroxy)ethyl-rapamycin]
treated mice with significant regression in the tumor volume (20A tumors [1]; 5 milligrams per kilogram daily gavage): 6 out of 10
average treated tumor volume (20A tumors [1]; day 19, 5 milligrams per kilogram daily gavage, equal to initial tumor size): 50 cubic millimeters
median tumor volume (20A tumors [1]; day 53, subset of mice with regression): < 5 cubic millimeters
mice with steady regression on further treatment (A1 cell line tumors; after day 21): all 8
tumors showing any evidence of growth (A1 cell line tumors; day 21): 0/8
median volume of the treated tumors (A1 cell line tumors; day 21, 5 milligrams per kilogram daily gavage): 50 cubic millimeters
mean tumor volume (A1 cell line tumors; day 53): < 5 cubic millimeters
mice in which no lymphoma could be detected (total tumor eradication) (A1 cell line tumors; day 53, 8 treated mice): 4 and 4 out of 8
mice with microscopically-confirmed residual lymphoma (A1 cell line tumors; day 53, 8 treated mice): 4
effect on tumor growth and establishment (15A tumors; 5 milligrams per kilogram body weight daily, initiated 3 days prior to tumor implantation): profoundly delayed the tumor growth, but was unable to inhibit the tumor establishment
average treated tumor volume (15A tumors; [4]): 38 cubic millimeters
median volume of the treated tumor (15A tumors; day 45, treatment from 3 days prior to implantation): 480 cubic millimeters
treated mice with no signs of tumor (establishment completely inhibited) (20A tumors [2]; 11 treated mice, microscopic evaluation revealed no malignant cells): Five and 5/11
median volume of the remaining 5 tumors (20A tumors [2]; day 25): 20 cubic millimeters
tumors not detectable (20A tumors [2]; [4]): 6 out of 11
volume of treated tumors (none exceeded) (20A tumors [2]; day 45): ≤ 150 cubic millimeters
tumor detection in the 8 treated mice (A1 tumors; day 29, treatment from 3 days prior to implantation): no tumor could be detected
mice with no evidence of tumor (establishment completely inhibited) (A1 tumors; day 53, 8 treated mice): 5 and 5/8
mice with small, histologically confirmed lymphomas (A1 tumors; day 53, 8 treated mice): 3
volume of the small lymphomas (A1 tumors; day 53, the 3 mice with lymphoma): < 5 cubic millimeters
response of cell lines to the drug [3]: non-responsive
